Reference: patent US12054498B2, “Heteroaromatic macrocyclic ether chemotherapeutic agents” (Nuvalent, Inc., priority 2020, dated 2024)
pIC50, pKi: −log10 of the molar value. Read-outs that look alike come from different tables or passages of the source.

Legend:
[1] = from CCn1ccc(C(=O)c2nn(C)nc2-c2ccc(F)cc2[C@@H](C)Oc2cc(Br)cnc2N)c1; cc_pd bond; 12-membered ring; Pd(OAc)2/cataCXium A/KOAc; 2-methyl-2-butanol; 38.0 mM; 120.0 °C
[2] = cc_pd bond, Pd(OAc)2/cataCXium A, KOAc, 2-methyl-2-butanol, 120.0 °C
[3] = from Cc1nn(CC2CC2)cc1Cc1nn(C)nc1-c1ccc(F)cc1C(CO[Si](C)(C)C(C)(C)C)Oc1cc(Br)cnc1N; cc_pd bond; 12-membered ring; Pd(OAc)2/cataCXium A/KOAc; 2-methyl-2-butanol; 30.0 mM; 120.0 °C
[4] = tested on: ROS1-positive NSCLC; settings: ROS1-positive NSCLC patients; cited from earlier work
[5] = biological target: T1, ALK L1196M/G1202R (Homo sapiens, UniProt Q9UM73, G1202R/L1196M); assay: Biochemical kinase assay, ALK L1196M/G1202R kinase domain; settings: apparent inhibitory constant, Morrison equation; ATP 2 mM in substrate solution; read-out: ALK-L1196M-G1202R Ki^app
T1 construct: purchased SignalChem A19-12NG
Outline: (§1)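 Compound in DMSO added first, then substrate solution (ATP 2 mM; AQT0101 or AQT0104, 26 μM; pH 7.5 HEPES, 10 mM MgCl2), then kinase solution with enzyme at 0.5–3 nM depending on construct. Kinetic read every 2 min for 120 min at 30° C; Ki^app by Morrison regression.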

[6] = biological target: T2, TRKA-wt (Homo sapiens, UniProt P04629); assay: Biochemical kinase assay, TRKA-wt kinase domain; settings: apparent inhibitory constant, Morrison equation; ATP 2 mM in substrate solution; read-out: TRKA-wt Ki^app
T2 construct: or TRKA-wt (1 nM, BPS Bio, 40280) kinase domains in buffer; purchased BPS Bio 40280
Outline: as §1

[7] = biological target: T3, Ba/F3 cells TPM3-TRKA (Homo sapiens, UniProt P04629); assay: Ba/F3 cell proliferation assay, TPM3-TRKA; type: cell-based; settings: 72 hours, CellTiter-Glo, read-out: TPM3-NTRK1-wt IC50
T3 construct: host or cells: Ba/F3 (RIKEN), retroviral pMSCV-puro; the other entry of the earlier key: TPM3 (P06753, Tropomyosin alpha-3 chain)
Outline: (§2)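 IL-3-independent Ba/F3 monoclones, puromycin-selected, transduced with fusion genes; 1,000 cells/well, 1 day rest, 3-fold compound series, 72 h. Read: CellTiter-Glo luminescence. IC50 from % inhibition vs concentration, 4-parameter logistic.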

[8] = tested on: TPM3-NTRK1-wt IC50 / primary target IC50 (e.g. CD74-ROS1-wt); assay: TRKA selectivity in Ba/F3 cells (TRKA potency divided by primary target potency); type: cell-based; settings: for TPM3-NTRK1-wt/CD74-ROS1-G2032R selectivity ratio: TRKA potency / CD74-ROS1-G2032R potency; for TPM3-NTRK1-wt/CD74-ROS1-wt selectivity ratio: TRKA potency / CD74-ROS1-wt potency; for TPM3-NTRK1-wt/EML4-ALK-L1196M-G1202R selectivity ratio: TRKA potency / EML4-ALK-L1196M-G1202R potency; for TPM3-NTRK1-wt/EML4-ALK-wt selectivity ratio: TRKA potency / EML4-ALK-wt potency
Protocol: TRKA selectivity was calculated by dividing a compound's TRKA potency by its primary target potency (e.g. TPM3-NTRK1-wt IC50/CD74-ROS1-wt IC50). Compound selectivity can be interpreted by binning ratio values: bin A for very high selectivity, ratio >30-fold; bin B for high selectivity, ratio >10-fold; bin C for moderate selectivity, ratio ≥1; and bin D for low selectivity, ratio <1. […] (nd=not determined).

[9] = biological target: T4, Ba/F3 cells CD74-ROS1 G2032R (Homo sapiens, UniProt P08922, G2032R); assay: Ba/F3 cell proliferation assay, CD74-ROS1 G2032R; type: cell-based; settings: 72 hours, CellTiter-Glo
T4 construct: fusion of the C-terminus of ROS1 with the N-terminus of various partner proteins; host or cells: Ba/F3 (RIKEN), retroviral pMSCV-puro; the other entry of the earlier key: CD74 (P04233, HLA class II histocompatibility antigen gamma chain)
Outline: (§3)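 First, retrovirally infected Ba/F3 cells were made IL-3-independent and selected with puromycin (0.8 μg/mL). Next, cells were plated and rested one day. Then compounds in 3-fold dilutions were added for 72 hours before CellTiter-Glo readout.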

[10] = biological target: T5, Ba/F3 cells CD74-ROS1 wild-type (wt) (Homo sapiens, UniProt P08922); assay: Ba/F3 cell proliferation assay, CD74-ROS1 wild-type; type: cell-based; settings: 72 hours, CellTiter-Glo
T5 construct: fusion of the C-terminus of ROS1 with the N-terminus of various partner proteins; host or cells: Ba/F3 (RIKEN), retroviral pMSCV-puro; the other entry of the earlier key: CD74 (P04233, HLA class II histocompatibility antigen gamma chain)
Outline: as §3

[11] = biological target: T6, Ba/F3 cells EML4-ALK L1196M/G1202R (variant 1) (Homo sapiens, UniProt Q9UM73, G1202R/L1196M); assay: Ba/F3 cell proliferation assay, EML4-ALK L1196M/G1202R (variant 1); type: cell-based; settings: 72 hours, CellTiter-Glo
T6 construct: echinoderm microtubule-associated protein-like 4 (EML4) gene and the ALK tyrosine kinase domain; host or cells: Ba/F3 (RIKEN), retroviral pMSCV-puro; the other entry of the earlier key: EML4 (Q9HC35, Echinoderm microtubule-associated protein-like 4)
Outline: as §2

[12] = biological target: T7, ALK-wt (Homo sapiens, UniProt Q9UM73); assay: Biochemical kinase assay, ALK-wt kinase domain; settings: apparent inhibitory constant, Morrison equation; ATP 2 mM in substrate solution; read-out: ALK-wt Ki^app
T7 construct: purchased Carna 08-518
Outline: as §1

[13] = biological target: T8, ROS1-G2032R (Homo sapiens, UniProt P08922, G2032R); assay: Biochemical kinase assay, ROS1-G2032R kinase domain; settings: apparent inhibitory constant, Morrison equation; ATP 2 mM in substrate solution; read-out: ROS1-G2032R Ki^app
T8 construct: purchased SignalChem R14-12BG
Outline: (§4)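 Kinetic read: 485 nm, 2-min intervals, 120 min, 30 °C. Substrate mix — ATP 2 mM, AQT0101 26 μM, HEPES 50 mM pH 7.5, MgCl2 10 mM. Output: Ki^app, Morrison equation.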

[14] = biological target: T9, ROS1-wt (Homo sapiens, UniProt P08922); assay: Biochemical kinase assay, ROS1-wt kinase domain; settings: apparent inhibitory constant, Morrison equation; ATP 2 mM in substrate solution; read-out: ROS1-wt Ki^app
T9 construct: purchased Carna 08-163
Outline: as §4

[15] = biological target: T10, Ba/F3 cells EML4-ALK wt (variant 1) (Homo sapiens, UniProt Q9UM73); assay: Ba/F3 cell proliferation assay, EML4-ALK wt (variant 1); type: cell-based; settings: 72 hours, CellTiter-Glo
T10 construct: echinoderm microtubule-associated protein-like 4 (EML4) gene and the ALK tyrosine kinase domain; host or cells: Ba/F3 (RIKEN), retroviral pMSCV-puro; the other entry of the earlier key: EML4 (Q9HC35, Echinoderm microtubule-associated protein-like 4)
Outline: as §2

T1 sequence (Q9UM73 1116-1392 L1196M/G1202R limits assumed): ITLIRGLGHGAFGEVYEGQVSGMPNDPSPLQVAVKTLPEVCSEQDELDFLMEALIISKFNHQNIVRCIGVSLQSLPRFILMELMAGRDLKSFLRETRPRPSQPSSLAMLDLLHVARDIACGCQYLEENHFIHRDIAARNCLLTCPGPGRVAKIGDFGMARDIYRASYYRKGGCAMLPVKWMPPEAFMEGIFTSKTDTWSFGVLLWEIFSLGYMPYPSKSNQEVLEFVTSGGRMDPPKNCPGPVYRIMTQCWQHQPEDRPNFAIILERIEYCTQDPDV
T5 sequence (P08922 1883-2347 limits assumed): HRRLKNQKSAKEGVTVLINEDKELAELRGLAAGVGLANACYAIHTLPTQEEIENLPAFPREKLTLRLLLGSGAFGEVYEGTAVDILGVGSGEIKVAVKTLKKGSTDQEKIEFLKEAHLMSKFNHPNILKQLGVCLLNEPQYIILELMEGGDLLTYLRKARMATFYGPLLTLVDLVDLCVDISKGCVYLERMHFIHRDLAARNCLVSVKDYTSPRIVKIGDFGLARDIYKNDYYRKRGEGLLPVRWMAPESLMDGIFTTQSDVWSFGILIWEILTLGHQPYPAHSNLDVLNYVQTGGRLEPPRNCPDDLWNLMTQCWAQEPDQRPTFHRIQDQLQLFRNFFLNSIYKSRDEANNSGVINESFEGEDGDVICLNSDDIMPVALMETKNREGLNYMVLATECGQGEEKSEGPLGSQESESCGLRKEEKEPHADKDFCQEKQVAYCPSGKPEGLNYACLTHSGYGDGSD
T2 sequence (P04629 510-781 limits assumed): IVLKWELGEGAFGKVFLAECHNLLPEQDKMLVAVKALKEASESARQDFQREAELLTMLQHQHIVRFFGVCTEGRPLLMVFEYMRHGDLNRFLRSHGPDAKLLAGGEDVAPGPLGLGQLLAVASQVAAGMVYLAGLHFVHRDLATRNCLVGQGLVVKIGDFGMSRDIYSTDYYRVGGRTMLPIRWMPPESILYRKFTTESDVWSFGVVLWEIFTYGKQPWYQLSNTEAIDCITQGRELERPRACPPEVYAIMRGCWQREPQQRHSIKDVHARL
T3 sequence (P04629 510-796 limits assumed): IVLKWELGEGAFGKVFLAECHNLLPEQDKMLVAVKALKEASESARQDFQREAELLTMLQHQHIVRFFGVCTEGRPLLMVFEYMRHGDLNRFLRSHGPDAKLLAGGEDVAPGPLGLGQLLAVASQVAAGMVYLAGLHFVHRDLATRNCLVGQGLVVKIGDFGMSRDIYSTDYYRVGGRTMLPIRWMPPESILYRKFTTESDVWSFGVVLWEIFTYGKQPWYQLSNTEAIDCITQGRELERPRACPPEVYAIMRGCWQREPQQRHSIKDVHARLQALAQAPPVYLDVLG
T10 sequence (Q9UM73 with tags, fused parts or gaps): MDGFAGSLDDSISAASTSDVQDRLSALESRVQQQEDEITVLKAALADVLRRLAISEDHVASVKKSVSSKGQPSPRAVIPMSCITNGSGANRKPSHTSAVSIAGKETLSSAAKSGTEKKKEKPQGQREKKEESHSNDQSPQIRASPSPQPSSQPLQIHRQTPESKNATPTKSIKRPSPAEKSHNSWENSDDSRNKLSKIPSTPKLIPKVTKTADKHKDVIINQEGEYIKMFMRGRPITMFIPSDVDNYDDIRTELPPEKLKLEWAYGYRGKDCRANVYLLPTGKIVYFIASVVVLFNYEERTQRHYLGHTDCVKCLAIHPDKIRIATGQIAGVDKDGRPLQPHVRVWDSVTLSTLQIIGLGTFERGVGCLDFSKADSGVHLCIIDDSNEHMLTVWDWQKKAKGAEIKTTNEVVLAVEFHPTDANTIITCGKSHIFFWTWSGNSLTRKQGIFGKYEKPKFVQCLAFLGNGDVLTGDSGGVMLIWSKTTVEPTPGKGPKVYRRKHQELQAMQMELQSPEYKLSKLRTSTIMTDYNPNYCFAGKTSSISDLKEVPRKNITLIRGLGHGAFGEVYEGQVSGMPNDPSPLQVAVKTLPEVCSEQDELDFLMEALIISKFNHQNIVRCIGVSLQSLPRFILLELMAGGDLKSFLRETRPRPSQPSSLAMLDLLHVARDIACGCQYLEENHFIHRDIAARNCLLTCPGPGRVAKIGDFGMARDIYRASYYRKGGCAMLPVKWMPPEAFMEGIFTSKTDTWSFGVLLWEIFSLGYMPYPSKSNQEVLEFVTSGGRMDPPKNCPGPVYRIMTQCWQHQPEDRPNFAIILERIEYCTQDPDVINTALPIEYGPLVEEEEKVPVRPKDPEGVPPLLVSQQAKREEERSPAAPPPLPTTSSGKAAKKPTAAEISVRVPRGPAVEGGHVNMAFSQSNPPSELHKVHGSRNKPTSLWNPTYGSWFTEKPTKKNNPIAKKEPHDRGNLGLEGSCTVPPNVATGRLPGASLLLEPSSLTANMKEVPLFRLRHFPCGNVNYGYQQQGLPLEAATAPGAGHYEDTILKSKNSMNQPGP
T7 sequence (Q9UM73 1116-1392 limits assumed): as the sequence (Q9UM73 1116-1392 L1196M/G1202R limits assumed) above, with M81L, R87G counted along it
T9 sequence (P08922 1945-2222 limits assumed): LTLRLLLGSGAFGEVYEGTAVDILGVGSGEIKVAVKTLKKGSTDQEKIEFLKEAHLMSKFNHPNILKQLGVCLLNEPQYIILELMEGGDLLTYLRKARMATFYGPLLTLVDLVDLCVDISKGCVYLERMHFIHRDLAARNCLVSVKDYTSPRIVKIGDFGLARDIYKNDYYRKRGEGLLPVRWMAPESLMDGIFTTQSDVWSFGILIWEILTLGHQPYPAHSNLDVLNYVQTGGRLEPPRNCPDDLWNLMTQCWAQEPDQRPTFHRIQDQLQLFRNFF
T6 sequence (Q9UM73 with tags, fused parts or gaps L1196M/G1202R): as the sequence (Q9UM73 with tags, fused parts or gaps) above, with L635M, G641R counted along it
T4 sequence (P08922 1883-2347 G2032R limits assumed): as the sequence (P08922 1883-2347 limits assumed) above, with G150R counted along it
T8 sequence (P08922 1945-2222 G2032R limits assumed): as the sequence (P08922 1945-2222 limits assumed) above, with G88R counted along it

SMILES | pKi [5] | pKi [6] | pIC50 [7] | pIC50 [9] | pIC50 [10] | pIC50 [11] | pKi [12] | pKi [13] | pKi [14] | pIC50 [15] | ring closure, yield after HPLC [1] [%] | ring closure, yield of all isomers ([2]; from CCn1ccc(C(=O)c2nn(C)nc2-c2ccc(F)cc2[C@@H](C)Oc2cc(Br)cnc2N)c1, 38.0 mM, 12.0 h) [%] | ring closure, isolated yield [3] [%] | ring closure, yield of all isomers ([2]; from Cc1nn(CC2CC2)cc1Cc1nn(C)nc1-c1ccc(F)cc1C(CO[Si](C)(C)C(C)(C)C)Oc1cc(Br)cnc1N, 30.0 mM) [%] | median progression-free survival [4] | overall response rate [4] | TPM3-NTRK1-wt/CD74-ROS1-G2032R selectivity ratio [8] | TPM3-NTRK1-wt/CD74-ROS1-wt selectivity ratio [8] | TPM3-NTRK1-wt/EML4-ALK-L1196M-G1202R selectivity ratio [8] | TPM3-NTRK1-wt/EML4-ALK-wt selectivity ratio [8]
CCn1ccc2c1-c1cnc(N)c(c1)O[C@H](C)c1cc(F)ccc1-c1nn(C)nc1C2=O |  |  |  |  |  |  |  |  |  |  | 15 | 15 |  |  |  |  |  |  |  | 
Cc1nn(CC2CC2)c2c1Cc1nn(C)nc1-c1ccc(F)cc1C(CO[Si](C)(C)C(C)(C)C)Oc1cc-2cnc1N (stereo not drawn) |  |  |  |  |  |  |  |  |  |  |  |  | 23 | 23 |  |  |  |  |  | 
C[C@@H](Oc1cc(-c2cnn(C3CCNCC3)c2)cnc1N)c1c(Cl)ccc(F)c1Cl [Crizotinib, crizotinib] |  |  |  |  |  |  |  |  |  |  |  |  |  |  | 9-19 months | 60-80% |  |  |  | 
CCc1nn(C)c2c1-c1cnc(N)c(c1)O[C@H](C)c1cc(F)ccc1-c1nn(C)nc1C2 [Example 98, (19R)-3-ethyl-16-fluoro-5,10,19-trimethyl-20-oxa-4,5,9,10,11,23-hexaazapentacyclo[19.3.1.0^2,^6.0^8,^12.0^13,^18]pentacosa-1(24),2(6),3,8,11,13,15,17,21(25),22-decaen-22-amine] | > 7.30 | 6.30 to 7.30 | 6.30 to 7.30 | 7.30 to 10.00 | 7.30 to 10.00 | 7.30 to 10.00 | > 7.30 | > 7.30 | > 7.30 | 7.30 to 10.00 |  |  |  |  |  |  | A (bin A for very high selectivity, ratio >30-fold) | A (bin A for very high selectivity, ratio >30-fold) | C (bin C for moderate selectivity, ratio ≥1) | A (bin A for very high selectivity, ratio >30-fold)

The next lines start with results.

pKi [5] | pKi [6] | pIC50 [7] | pIC50 [9] | pIC50 [10] | pIC50 [11] | pKi [12] | pKi [13] | pKi [14] | pIC50 [15] | SMILES | ring closure, yield after HPLC [1] [%] | ring closure, yield of all isomers ([2]; from CCn1ccc(C(=O)c2nn(C)nc2-c2ccc(F)cc2[C@@H](C)Oc2cc(Br)cnc2N)c1, 38.0 mM, 12.0 h) [%] | ring closure, isolated yield [3] [%] | ring closure, yield of all isomers ([2]; from Cc1nn(CC2CC2)cc1Cc1nn(C)nc1-c1ccc(F)cc1C(CO[Si](C)(C)C(C)(C)C)Oc1cc(Br)cnc1N, 30.0 mM) [%] | median progression-free survival [4] | overall response rate [4] | TPM3-NTRK1-wt/CD74-ROS1-G2032R selectivity ratio [8] | TPM3-NTRK1-wt/CD74-ROS1-wt selectivity ratio [8] | TPM3-NTRK1-wt/EML4-ALK-L1196M-G1202R selectivity ratio [8] | TPM3-NTRK1-wt/EML4-ALK-wt selectivity ratio [8]
> 7.30 | < 6.30 | < 6.30 | 7.30 to 10.00 | 7.30 to 10.00 | 6.30 to 7.30 | > 7.30 | > 7.30 | > 7.30 | 7.30 to 10.00 | C[C@H]1Oc2cc(cnc2N)-c2c(CC3CC3)nn(C)c2Cn2ncnc2-c2ccc(F)cc21 [Example 99, (19R)-3-(cyclopropylmethyl)-16-fluoro-5,19-dimethyl-20-oxa-4,5,8,9,11,23-hexaazapentacyclo[19.3.1.0^2,^6.0^8,^12.0^13,^18]pentacosa-1(24),2(6),3,9,11,13,15.17,21(25),22-decaen-22-amine] |  |  |  |  |  |  | A (bin A for very high selectivity, ratio >30-fold) | A (bin A for very high selectivity, ratio >30-fold) | B (bin B for high selectivity, ratio >10-fold) | A (bin A for very high selectivity, ratio >30-fold)
> 7.30 | < 6.30 | < 6.30 | 7.30 to 10.00 | 7.30 to 10.00 | 7.30 to 10.00 | > 7.30 | > 7.30 | > 7.30 | 7.30 to 10.00 | C[C@H]1Oc2cc(cnc2N)-c2c(CC3CC3)nn(C)c2Cc2nn(C)nc2-c2ccc(F)cc21 [Example 100, (19R)-3-(cyclopropylmethyl)-16-fluoro-5,10.19-trimethyl-20-oxa-4,5,9,10,11 23-hexaazapentacyclo[19.3.1.0^2,^6.0^8,^12.0^13,^18]pentacosa-1(24),2(6) 3,8,11,13,15,17,21(25),22-decaen-22-amine] |  |  |  |  |  |  | A (bin A for very high selectivity, ratio >30-fold) | A (bin A for very high selectivity, ratio >30-fold) | A (bin A for very high selectivity, ratio >30-fold) | A (bin A for very high selectivity, ratio >30-fold)
